Source: publication PMC11091889, “Silver Organometallics that are Highly Potent Thioredoxin and Glutathione Reductase Inhibitors: Exploring the Correlations of Solution Chemistry with the Strong Antibacterial Effects” (ACS Infectious Diseases, 2024)

What was measured:
[1] = Conductometry: molar conductivity of silver complexes in DMSO; assay type: physicochemical; conditions: 1.0 mM in DMSO, calculated as monocarbene (NHC)AgX
Description: Since both the neutral monocarbene and the ionic biscarbene form of the complexes may exist in various proportions in the solution, conductometry studies were performed to reveal the dominant structure. The molar conductivity of 1.0 mM solutions of each complex in DMSO was determined after different periods up to 24 h using AgNO3 as 1:1 electrolyte reference (see Table 1). According to the literature, the expected range of molar conductivity for 1:1 electrolytes in DMSO is 35–90 S cm^2 mol^–1.[45],[46]
Conductivity measurements were performed using an Apera Instruments EC9500 conductivity meter. Solutions (as indicated, otherwise 1.0 mM) of all compounds were prepared using freshly distilled DMSO with a specific electrical conductivity of ≤3 × 10^–8 S cm^–1. The conductivities were measured at 25 ± 2 °C immediately after complete dissolution and after 24 h.

[2] = system: E. coli (DSM1116, ATCC 9637); assay: microbe, parasite or virus in culture; assay type: cell-based, Escherichia coli; conditions: n = 3, MHB; for EC50 / MIC E. coli: mean ± standard error; for MIC E. coli / MIC E. coli (value in brackets): 22 h
Description: (§1) The antibacterial effect of the silver NHC complexes and selected ligands was evaluated in two Gram-positive [Enterococcus faecium, methicillin resistant S. aureus, (MRSA)] and in four Gram-negative (Acinetobacter baumannii, Escherichia coli, Klebsiella pneumoniae, and Pseudomonas aeruginosa) pathogenic bacterial strains using broth microdilution assays. The resulting minimal inhibitory concentrations (MICs, Table 2) and EC50 (Table S6) were determined by a curve fitting procedure. Silver nitrate (AgNO3), SSD, and various antibiotics were used as references.
(§2) The following strains of ESKAPE panel were utilized and maintained at 37 °C in MHB (21 g/L Müller Hinton broth, pH 7.4) or TSY (30 g/L trypticase soy broth, 3 g/L yeast extract, pH 7.0–7.2) media: A. baumannii (DSM 30007, ATCC 19606), E. coli (DSM1116, ATCC 9637), K. pneumoniae (DSM 11678, ATCC33495), P. aeruginosa PA7 (DSM 24068) in MHB; E. faecium (DSM 20477, ATCC 19434), and S. aureus MRSA (DSM 11822, ICB 25701) in TSY. MIC values were determined following a standardized protocol in broth microdilution assays. The compounds and reference substances (AgNO3 and SSD) were serially diluted from 64 to 1 μg/mL. Starting inocula of 2–8 × 10^5 CFU/mL in MHB or TSY media at 37 °C were used, and serial dilutions were carried out in 96-well microtiter plates in duplicate. After incubation of the plates for 22 h at 37 °C, the absorbance at 600 nm was measured using The Spark multimode microplate reader (Tecan Trading AG). The MIC values for the tested compounds were determined in three independent experiments and presented in μM with standard errors and also in μg/mL. Amikacin (P. aeruginosa), linezolid (S. aureus), and ciprofloxacin (all other strains) served as positive controls. The MIC and EC50 values were determined by curve fitting with Sigma Plot. To determine the effect of the culture medium on the activity of silver compounds, the assay was performed using MHB, TSY, or DMEM (Gibco). To observe the effect of individual components of TSY medium, antibacterial tests were performed using MHB with addition of tryptone (17 g/L) or yeast extract (3 g/L, both were purchased from Sigma).

[3] = system: P. aeruginosa PA7 (DSM 24068); assay: microbe, parasite or virus in culture; assay type: cell-based, Pseudomonas aeruginosa; conditions: n = 3, MHB; for MIC P. aeruginosa / EC50: mean ± standard error; for MIC P. aeruginosa / MIC P. aeruginosa (value in brackets): 22 h; for EC50: read-out: EC50 P. aeruginosa
Description: as §1, §2

[4] = system: K. pneumoniae (DSM 11678, ATCC33495); assay: Broth microdilution antibacterial assay; assay type: cell-based, Klebsiella pneumoniae; conditions: n = 3, MHB; for MIC K. pneumoniae / EC50: mean ± standard error; for MIC K. pneumoniae / MIC K. pneumoniae (value in brackets): 22 h; for EC50: read-out: EC50 K. pneumoniae
Description: as §1, §2

[5] = system: A. baumannii (DSM 30007, ATCC 19606); assay: Broth microdilution antibacterial assay; assay type: cell-based, Acinetobacter baumannii; conditions: n = 3, MHB; for MIC A. baumannii / EC50: mean ± standard error; for MIC A. baumannii / MIC A. baumannii (value in brackets): 22 h; for EC50: read-out: EC50 A. baumannii
Description: as §1, §2

[6] = system: S. aureus MRSA (DSM 11822, ICB 25701); assay: microbe, parasite or virus in culture; assay type: cell-based, methicillin resistant S. aureus; conditions: n = 3, TSY; for MIC MRSA / EC50: mean ± standard error; for MIC MRSA / MIC MRSA (value in brackets): 22 h; for EC50: read-out: EC50 MRSA
Description: as §1
The importance of the culture medium used in antibacterial assays has been pointed out for antibiotics and in particular for silver.[53]−[55] In our recent studies, tryptic soy yeast (TSY) broth has been used for growing Gram-positive bacteria. Two components thereof, tryptone and yeast extract, have been reported to affect the antibacterial activity of silver nitrate.[55] Moreover, such an effect was also observed for other media containing at least one of those components.[11],[53] […] Silver nitrate served as a reference, and three different growth media were studied, namely, Müller-Hinton Broth (MHB, commonly used for Gram-negative bacteria), TSY broth (commonly used for Gram-positive bacteria), and DMEM supplemented with 10% FCS (commonly used for growth of mammalian and human cells).
as §2

[7] = system: E. faecium (DSM 20477, ATCC 19434); assay: Broth microdilution antibacterial assay; assay type: cell-based, Enterococcus faecium; conditions: n = 3, TSY; for MIC E. faecium / EC50: mean ± standard error; for MIC E. faecium / MIC E. faecium (value in brackets): 22 h; for EC50: read-out: EC50 E. faecium
Description: as §1, §2

Row | Structure (SMILES) | Molar conductivity ΛM ([1]; 1 h after dissolution) | Molar conductivity ΛM ([1]; 24 h after dissolution) | EC50 [2] | MIC E. coli [2] | MIC E. coli (value in brackets) [2] | MIC P. aeruginosa [3] | EC50 [3] | MIC P. aeruginosa (value in brackets) [3] | MIC K. pneumoniae [4] | EC50 [4] | MIC K. pneumoniae (value in brackets) [4] | MIC A. baumannii [5] | EC50 [5] | MIC A. baumannii (value in brackets) [5] | MIC MRSA [6] | EC50 [6] | MIC MRSA (value in brackets) [6] | MIC E. faecium [7] | EC50 [7] | MIC E. faecium (value in brackets) [7]
1 | [Br][Ag]=[c]1n(Cc2ccccc2)c2ccccc2n1Cc1ccccn1 [5b, Bromido (1-(Pyridin-2-ylmethyl)-3-benzyl-benzimidazol-2-ylidene) Silver(I)] | 6.58 S cm^2 mol^–^1 | 5.68 S cm^2 mol^–^1 | 27.1 ± 1.2 µM | 32.8 ± 0.0 µM | 16 µg/mL | 65.7 ± 0.0 µM | 28.2 ± 2.7 µM | 32 µg/mL | 16.4 ± 0.0 µM | 9.5 ± 0.3 µM | 8 µg/mL | 16.4 ± 0.0 µM | 0.72 ± 0.15 µM | 8 µg/mL | 131 ± 0.0 µM | 75.5 ± 1.4 µM | 64 µg/mL | 131 ± 0.0 µM | 111 ± 0.2 µM | 64 µg/mL
2 | [Cl][Ag][c]1n(Cc2ccccn2)c2ccccc2[n+]1Cc1ccccn1 [6a] | 3.75 S cm^2 mol^–^1 | 4.15 S cm^2 mol^–^1 | 38.1 ± 6.9 µM | 48.1 ± 12.0 µM | 21 µg/mL | 60.1 ± 12.0 µM | 33.6 ± 5.8 µM | 27 µg/mL | 9.02 ± 0.0 µM | 5.9 ± 0.2 µM | 4 µg/mL | 9.0 ± 0.0 µM | 1.6 ± 0.1 µM | 4 µg/mL | 144 ± 0.0 µM | 91.3 ± 0.6 µM | 64 µg/mL | 144 ± 0.0 µM | 133 ± 0.6 µM | 64 µg/mL
3 | [Br][Ag][c]1n(Cc2ccccn2)c2ccccc2[n+]1Cc1ccccn1 [6b] | 6.13 S cm^2 mol^–^1 | 6.50 S cm^2 mol^–^1 | 14.6 ± 1 µM | 21.9 ± 5.5 µM | 10 µg/mL | 27.3 ± 5.5 µM | 13.5 ± 3.7 µM | 13 µg/mL | 13.7 ± 0.0 µM | 6.4 ± 0.2 µM | 7 µg/mL | 8.2 ± 0.0 µM | 0.47 ± 0.02 µM | 4 µg/mL | 132 ± 0.0 µM | 90.7 ± 4.5 µM | 64 µg/mL | 132 ± 0.0 µM | 105 ± 0.1 µM | 64 µg/mL
